“Also recorded” adds a separate entry of the source. Read-outs that look alike come from different tables or passages of the source.
How the values were obtained:
[1] = molecular target: cathepsin L (Homo sapiens, UniProt P07711); experiment: biochemical; assay type: biochemical
[2] = molecular target: SARS-CoV-2 PL^Pro (Severe acute respiratory syndrome coronavirus 2, UniProt P0DTD1); experiment: biochemical; assay type: biochemical
[3] = test system: human lung tissue (HLT) cells
[4] = 1H NMR stability in biologically relevant media; assay type: physicochemical; settings: buffers in D2O (1% DMSO-d6 for a and 1a), t = 0 and 30 min
Protocol: Acetate and HEPES buffers were prepared in D2O. […] Such solutions were further filtered through Minisart® Regenerated Cellulose Syringe Filter (25 mm, 0.2 µm).

[5] = test system: SARS-CoV-2 viral isolate; assay type: cell-based; settings: 30 µM
[6] = UV–vis stability in biologically relevant media; assay type: physicochemical; settings: 50 mM acetate buffer pH 5.5 (1% DMSO for a and 1a), 0 and 30 min
Protocol: The same buffers as for enzymatic assays were used for UV–vis stability testing (50 mM acetate buffer, pH = 5.5, and 50 mM HEPES buffer, pH = 7.4). Pyrithione a and zinc pyrithione 1a were dissolved in DMSO. Mixtures of a dissolved compound in DMSO (1%) and buffer (99%) were filtered through Minisart® Regenerated Cellulose Syringe Filter (25 mm, 0.2 µm). Ruthenium complex 2a was dissolved directly in buffers. After preparation, the spectra were immediately recorded on UV–vis spectrometer with an additional recording after 30 min.

[7] = in vitro; settings: human
[8] = 100 µM ligand, averages of three measurements
[9] = pH 5.5, read-out: IC50 cathepsin L

Sequence of cathepsin L (P07711 114-333): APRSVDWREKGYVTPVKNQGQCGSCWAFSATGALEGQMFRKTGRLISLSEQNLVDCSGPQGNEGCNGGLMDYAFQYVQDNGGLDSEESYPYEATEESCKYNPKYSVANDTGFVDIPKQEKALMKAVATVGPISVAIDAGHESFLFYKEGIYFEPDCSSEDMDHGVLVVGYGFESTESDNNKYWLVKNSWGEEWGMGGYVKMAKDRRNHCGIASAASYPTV

Zn-(N-hydroxyisoquinoline-1-thione) complex [1f]
IC50 ([1]; 50 mM acetate buffer pH 5.5, 2 µM Z-LR-AMC, 5 µM DTT, 25 °C, mean ± S.E.M. (N = 3), read-out: IC50 cathepsin L): 0.14 ± 0.05 µM
extent of PL^Pro inhibition (in words) [2]: cannot fully inhibit the enzyme

Cc1ccn(O)c(=S)c1 [c]
vi/v0 at 100 µM, Cathepsin L (relative reaction rate) [1, 8]: 1.04
vi/v0 at 100 µM, PLPro (relative reaction rate) [2, 8]: 0.60

Cc1ccc(=S)n(O)c1 [d]
vi/v0 at 100 µM, Cathepsin L (relative reaction rate) [1, 8]: 1.01
vi/v0 at 100 µM, PLPro (relative reaction rate) [2]: 0.77

Zn-(5Me-pth) complex [1d]
IC50 [1, 9]: 0.44 ± 0.12 µM
IC50 ([2]; pH 7.4, read-out: IC50 PL^Pro): 0.22 ± 0.08 µM

Zn-(4Me-pth) complex [1c]
IC50 [1, 9]: 0.41 ± 0.08 µM
IC50 ([2]; pH 7.4, read-out: IC50 PL^Pro): 0.54 ± 0.25 µM

COc1cccn(O)c1=S [h]
vi/v0 at 100 µM, Cathepsin L (relative reaction rate) [1, 8]: 1.17
vi/v0 at 100 µM, PLPro (relative reaction rate) [2, 8]: 0.60

On1c(=S)ccc2ccccc21 [g]
vi/v0 at 100 µM, Cathepsin L (relative reaction rate) [1, 8]: 0.53
vi/v0 at 100 µM, PLPro (relative reaction rate) [2, 8]: 0.28

Zn-(6Me-pth) complex [1e]
IC50 [1, 9]: 0.24 ± 0.05 µM
IC50 ([2]; pH 7.4, read-out: IC50 PL^Pro): 0.26 ± 0.18 µM

Cc1cccc(=S)n1O [e]
vi/v0 at 100 µM, Cathepsin L (relative reaction rate) [1, 8]: 1.15
vi/v0 at 100 µM, PLPro (relative reaction rate) [2]: 0.82

On1ccc2ccccc2c1=S [f, N-hydroxyisoquinoline-1-thione]
vi/v0 at 100 µM, Cathepsin L (relative reaction rate) [1, 8]: 0.65
vi/v0 at 100 µM, PLPro (relative reaction rate) [2, 8]: 0.66

Cc1cccn(O)c1=S [b]
vi/v0 at 100 µM, Cathepsin L (relative reaction rate) [1, 8]: 1.05
vi/v0 at 100 µM, PLPro (relative reaction rate) [2]: 0.50

On1ccccc1=S [a, 1-hydroxy-2(1H)-pyridinethione]
cell survival [3]: 72.91%
1H NMR stability in acetate and HEPES buffers [4]: no structural changes
inhibition of SARS-CoV-2 replication [5]: no effect; also recorded: did not inhibit
UV–vis stability in acetate buffer [6]: remain stable
CC50 [7]: > 100 µM
viability [7]: 51.9 to 55.5%
IC50 [1]: > 500 µM
vi/v0 at 100 µM, Cathepsin L (relative reaction rate) [1]: 1.09
IC50 [2]: > 500 µM
vi/v0 at 100 µM, PLPro (relative reaction rate) [2]: 0.88

— publication PMC9367663 (Journal of Enzyme Inhibition and Medicinal Chemistry, 2022)
